Assay results published in patent US7339042B2, “Gene delivery to tumors” (University of Florida Research Foundation, Inc., priority 2003, dated 2008).

Experiments:
[1] = system: T98G cells, RG2 cells and A172 cells; test: Cell viability assay of chimeric peptides in three cell types; assay type: cell-based, human and rat; conditions: fixed concentration, 30-minute incubation
Protocol: Synthetic peptides labeled with an N-terminal fluorescein were synthesized to test the ability of a shuttle domain to enter brain tumor and endothelial cells. The amino acid sequences for the shuttle domain was derived from HIV Tat amino acid 47 to 56 ([…] SEQ ID NO:23)(Robert-Guroff et al., J. Virol. 64:3391-3398, 1990) to which AGGG was added to the N-terminus, and the antennapedia homeodomain from drosophila (ANT) ([…] SEQ ID NO:24) (Astriab-Fisher et al., Pharm. Res., 19:744-754, 2002). A synthetic peptide (PTD-5) reported to have similar properties as Tat and ANT was also tested (Mai J. C. et al, Cancer Res. 2001; 61: 7709-7712.). Uptake was tested in two human glioblastoma cell lines and a rat glioma cell line, the latter being used for the rat brain tumor model. A 1 μM concentration of each peptide was added to 10^6 cells in a 6 well plate. […] The Tat and ANT peptides were doubled in length by the addition of […] (SEQ ID NO: 25), amino acids 42 to 55 from a human cyclin-dependent kinase inhibitor 2A (melanoma, p16, inhibits CDK4) (CDKI), transcript variant 4, mRNA (accession no. NM_058195). […]
The cytotoxicity of the chimeric peptides was characterized using a cell viability assay. […] After a 30-minute incubation, cells were removed from the plate, stained with propidium iodide and the % positive cells were determined by FACS (fluorescent activated cell scanning). […]

rat cerebral arteries [2] = test: Vasodilation and vasoconstriction response of rat cerebral arteries before and after peptide; assay type: cell-based; conditions: after vs before intraluminal peptide
Protocol: The blood vessels were put in culture described above and perfused with buffer of the same composition as cerebrospinal fluid. Vessel diameter was measured before and after administration of each reagent. 3 μM of each peptide was perfused through for 10 minutes followed by a 10 minute wash through. Vasoconstriction and vasodilation were determined for each vessel before peptide was applied. Perfusion was continued until the vessels relaxed to their original diamter (approximately 30 minutes). The vasoconstriction and vasodilation reponse was remeasured after the 10 minute wash through. The 60 mM KCl and 16 mM KCl conditions are […], respectively. Histamine and Bradykinin are endothelial cell vasodilators.
In some experiments, the arterial segments were denuded of endothelium by passing an air bubble through the lumen, thus exposing the smooth muscle cells to luminally administered peptides. Constriction to pressure and 60 mM KCl and dilation of arteries with myogenic tone to 16 mM KCl were used as benchmarks of functional arteries. Peptide containing PCSF was perfused intraluminally at an inlet pressure of 70 mmHg with the outlet open, for 20 min and then perfused with normal PCSF. This procedure ensures a 20 min of exposure of the arteries to the peptide.
(§1) Effect of peptide on endothelial and smooth muscle function was evaluated by histamine (0.3 and 1 μM) and bradykinin (0.5 μM) (endothelium-dependent vasodilators) and 16 and 60 mM KCl (results in dilation and constriction of arteries by hyperpolarizing and depolarizing smooth muscle, respectively). These drug solutions were added to the superfusate and applied to the arteries extraluminally for 10 to 15 min before and after intraluminal perfusion with peptides. Effects of these agents were expressed as percent change in myogenic tone (decrease for dilators and increase for constrictors). Experiments were concluded by exposing the arteries to calcium free PCSF to obtain the passive diameter. Cell viability was determined by adding H3334 (Hoechst viability stain, final concentration 1 μM) and propidium iodide (final concentration 1 μM) to the arteriograph after the peptide incubation. Fluorescent micrographs were taken of the vessels after incubation with peptides and following addition of the vital stains using Till Photonics imaging system (Martinsried, Germany).

[3] = system: endothelial cells and smooth muscle cells of rat cerebral arteries; test: Uptake of fluorescent peptides by pressure-mounted rat cerebral arteries; assay type: cell-based; conditions: extraluminal addition
RG2 cells = test: Kinetic uptake studies of fluorescent peptides; assay type: cell-based, rat
Protocol: A172 cells, T98G cells and RG2 cells were purchased from ATCC. Cells were cultured under standard conditions. For cell uptake studies, each cell type was plated in 6 well plates at 5×10^5 cells per well 24 hours before the experiment. Increasing concentration of fluorescent peptides from 0.5 μM to 10 μM was prepared in complete medium. Cells were incubated with each concentration for 5, 10, 20 and 30 minutes at 37° C. followed by removal and washing of cells with 4° C. PBS 3×. Cells were solubilized in 0.2 ml 1% TX-100, PBS, pH 7.4. Fluorescence was measured using a fluorescent plate reader. Concentrations were determined by standard curve and normalized to μg of cellular protein.
A172, T98G and RG2 cells were plated in 6 well plates and incubated with 1, 2.5, 5 and 10 uM fluorescein labeled peptides for 5, 15, 30 and 60 minutes. Cells were washed 3× with PBS, removed from the plates with trypsin, centrifuged for 2 minutes at 2K rpm in a desk top centrifuge, supernatants discarded and the cell pellets were solubilized in 1% TX-100, PBS, pH 7.4. Fluorescence was measured in a Perkin Elmer fluorimeter using ˜ex=480 nm and ˜em=520 nm with a 510 nm cut off filter. Amount of cell-associated protein was determined from the standard curve.
This peptide was further characterized with regard to dose response. […]

rat cerebral arteries [4] = test: Cell viability staining of arteries (propidium iodide, H3334) after peptide; assay type: cell-based; conditions: after treatment with peptide
Protocol: No PI statined smooth muscle cell nuclei were observed.
as §1

[5] = system: two human glioblastoma cell lines and a rat glioma cell line; test: Fluorescein peptide uptake, fluorescence microscopy, three glioma lines; assay type: cell-based; conditions: 1 μM peptide, 10^6 cells, all three cell types
Protocol: Synthetic peptides labeled with an N-terminal fluorescein were synthesized to test the ability of a shuttle domain to enter brain tumor and endothelial cells. The amino acid sequences for the shuttle domain was derived from HIV Tat amino acid 47 to 56 ([…] SEQ ID NO:23)(Robert-Guroff et al., J. Virol. 64:3391-3398, 1990) to which AGGG was added to the N-terminus, and the antennapedia homeodomain from drosophila (ANT) ([…] SEQ ID NO:24) (Astriab-Fisher et al., Pharm. Res., 19:744-754, 2002). A synthetic peptide (PTD-5) reported to have similar properties as Tat and ANT was also tested (Mai J. C. et al, Cancer Res. 2001; 61: 7709-7712.). Uptake was tested in two human glioblastoma cell lines and a rat glioma cell line, the latter being used for the rat brain tumor model. A 1 μM concentration of each peptide was added to 10^6 cells in a 6 well plate. […] The Tat and ANT peptides were doubled in length by the addition of […] (SEQ ID NO: 25), amino acids 42 to 55 from a human cyclin-dependent kinase inhibitor 2A (melanoma, p16, inhibits CDK4) (CDKI), transcript variant 4, mRNA (accession no. NM_058195). This domain binds MDM2 and inhibit ubiquination of P53, a tumor suppressor protein. […] Only the combination of Tat-CDKI was toxic to the cells, 65% killing for T98G and 61% killing for RG2 cells. […] Similar results were obtained with A172 cells. […]

Q: What does the source list for `C[C@H](N)C(=O)NCC(=O)NCC(=O)NCC(=O)N[C@@H](Cc1ccc(O)cc1)C(=O)NCC(=O)N[C@@H](CCCNC(=N)N)C(=O)N[C@@H](CCCCN)C(=O)N[C@@H](CCCCN)C(=O)N[C@@H](CCCNC(=N)N)C(=O)N[C@@H](CCCNC(=N)N)C(=O)N[C@@H](CCC(N)=O)C(=O)N[C@@H](CCCNC(=N)N)C(=O)N[C@@H](CCCNC(=N)N)C(=O)N[C@@H](CCCNC(=N)N)C(=O)O` [Tat]?
A: cells killed [1]: No impact on cell viability; endothelium-dependent dilation to histamine and bradykinin (rat cerebral arteries [2]): responsive to all stimuli; smooth muscle response to 60 and 16 mM KCl (rat cerebral arteries [2]): responsive to all stimuli; labeling of smooth muscle cells [3]: able to label the smooth muscle cells; uptake rate (RG2 cells): more rapid uptake than TatP14ARF; propidium iodide staining of blood vessels (rat cerebral arteries [4]): no PI stained nuclei; fluorescence labeling of cells (uptake) [5]: preferentially labeled the cell nuclei
